The results in this text go back to ChEMBL document CHEMBL1201862, “PubChem BioAssay data set” (2004).

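Test compounds were applied to cells in 96-well plates for 48 hours at 5 doses. GI50 = concentration required for 50% inhibition of growth.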 Calls of active or inactive are those of the source. Rule as the data show it: active = GI50 up to about 1.1 µM and inactive = higher. Bounds are passed on as bounds.

Some test systems named below: 786-0; A498; A549; DU-145; HOP-92; HT-29; Hs-578T; IGROV-1; KM12; MCF7; MOLT-4; OVCAR-3; OVCAR-5; RPMI-8226; SK-MEL-2; UACC-257; LOX IMVI; Malme-3M; NCI-H522; HCC 2998.
What all share (assay): DTP human tumour cell line panel, 48 h

In general, GI50 refers to the concentration giving 50% growth inhibition. As to `C=CCC1C2CCC(O[Si](C(C)C)(C(C)C)C(C)C)(C(C(=O)OC)C2)C1O` (stereo not given), the GI50 in the assay with 786-0 was 17.2 µM (inactive); in the assay on A498 it was > 100 µM (inactive); in the assay with A549, 32.9 µM (inactive); in the assay with DU-145, > 100 µM (inactive); in the assay on HOP-92, > 100 µM (inactive); in the assay with HT-29, 53.7 µM (inactive). The GI50 in the assay on Hs-578T is 23.6 µM (inactive); in the assay on IGROV-1, 69.2 µM (inactive); with KM12 it was 54.5 µM (inactive); with MCF7 it was 35.4 µM (inactive); in the assay with MOLT-4 it was 35.2 µM (inactive); with OVCAR-3 it was > 100 µM (inactive). Further, the GI50 in the assay on OVCAR-5 was > 100 µM (inactive); in the assay with RPMI-8226, 72.6 µM (inactive); in the assay with SK-MEL-2, 41.9 µM (inactive); with UACC-257 it was 38.3 µM (inactive).

For the compound `COc1cc(C=O)ccc1Oc1nnnn1-c1ccccc1`, the GI50 is > 100 µM (inactive) with 786-0; > 100 µM (inactive) in the assay on A549; 32.1 µM (inactive) with DU-145; 71.4 µM (inactive) in the assay on HOP-92; 86.7 µM (inactive) with HT-29; 48.6 µM (inactive) with Hs-578T. Moreover, the GI50 in the assay on IGROV-1 was 84.1 µM (inactive); in the assay with KM12, 55 µM (inactive); in the assay on LOX IMVI, 39.9 µM (inactive); in the assay on MOLT-4, 23.1 µM (inactive); in the assay on Malme-3M it was 84.1 µM (inactive); in the assay on NCI-H522, > 100 µM (inactive). The GI50 is 45.7 µM (inactive) in the assay with OVCAR-3; > 100 µM (inactive) with OVCAR-5; 32.8 µM (inactive) in the assay on RPMI-8226; > 100 µM (inactive) with SK-MEL-2; > 100 µM (inactive) in the assay with UACC-257.

`COc1ccc(-c2c(C#N)c(-c3ccc(C)cc3)n(NS(=O)(=O)c3ccc(C)cc3)c(=O)c2C#N)cc1`: the GI50 is 86.5 µM (inactive) with 786-0; 92 µM (inactive) with A498; 41 µM (inactive) with A549; 62.1 µM (inactive) with HCC 2998; 74.6 µM (inactive) in the assay with HOP-92; 44.1 µM (inactive) with HT-29. For the same compound, the GI50 with Hs-578T is 25.1 µM (inactive); in the assay on IGROV-1 it was 39.5 µM (inactive); in the assay on KM12, 24.8 µM (inactive); with LOX IMVI, 39.3 µM (inactive); in the assay with MCF7 it was 24.5 µM (inactive); in the assay on MOLT-4 it was 19.8 µM (inactive). The GI50 was > 100 µM (inactive) in the assay on Malme-3M; 80.7 µM (inactive) with NCI-H522; > 100 µM (inactive) in the assay on OVCAR-5; 17.3 µM (inactive) in the assay with RPMI-8226; 58.9 µM (inactive) in the assay on SK-MEL-2; > 100 µM (inactive) with UACC-257.

As for `CCCC(=O)Oc1cc(OC(=O)CCC)c2c(C)cc(=O)oc2c1`, the GI50 with 786-0 is 82.6 µM (inactive); in the assay on A498, 46.1 µM (inactive); with A549 it was 92.9 µM (inactive); in the assay on DU-145, > 100 µM (inactive); in the assay on HOP-92, 19.6 µM (inactive); in the assay on HT-29 it was 36.5 µM (inactive). The GI50 in the assay with Hs-578T is 48.4 µM (inactive); in the assay on IGROV-1 it was 44.1 µM (inactive); with KM12, 32.5 µM (inactive); with LOX IMVI, 40.1 µM (inactive); in the assay on MCF7, 54.5 µM (inactive); in the assay with MOLT-4 it was 29 µM (inactive). Moreover, the GI50 was 76.6 µM (inactive) with Malme-3M; 50 µM (inactive) in the assay on OVCAR-3; > 100 µM (inactive) with OVCAR-5; 32.2 µM (inactive) in the assay with RPMI-8226; > 100 µM (inactive) with SK-MEL-2; 83.6 µM (inactive) with UACC-257.

On to `Brc1ccc2c(-c3csc(-c4c[nH]c5cc(Br)ccc45)n3)c[nH]c2c1`, for which the GI50 in the assay on 786-0 is 22 µM (inactive); in the assay with A498 it was 37.1 µM (inactive); in the assay with A549 it was 19.5 µM (inactive); with DU-145 it was 19.5 µM (inactive); in the assay on HCC 2998 it was 43.8 µM (inactive); in the assay with HOP-92, 31.1 µM (inactive). Further, the GI50 in the assay with HT-29 was 15.8 µM (inactive); with Hs-578T, 23 µM (inactive); with IGROV-1, 17 µM (inactive); in the assay with KM12, 11.8 µM (inactive); in the assay on LOX IMVI it was 20.9 µM (inactive); in the assay with MCF7, 11.8 µM (inactive). Moreover, the GI50 in the assay with MOLT-4 was 12.1 µM (inactive); with Malme-3M, 28.4 µM (inactive); with OVCAR-3, 52.1 µM (inactive); in the assay on OVCAR-5, 26.6 µM (inactive); in the assay with RPMI-8226, 17.6 µM (inactive); in the assay with SK-MEL-2, > 83 µM (inactive). The GI50 in the assay on UACC-257 was > 65.9 µM (inactive).

For the compound `COc1cc(C(=O)C2C(=O)c3ccccc3C2C2(O)c3ccccc3CC2C(O)c2cc(OC)c(OC)c(OC)c2)cc(OC)c1OC` (stereo not given), the GI50 was > 100 µM (inactive) with 786-0; > 100 µM (inactive) in the assay on A498; > 100 µM (inactive) in the assay with A549; > 100 µM (inactive) in the assay on DU-145; > 100 µM (inactive) in the assay on HCC 2998; 51.2 µM (inactive) with HOP-92. For the same compound, the GI50 in the assay on HT-29, in the assay with Hs-578T, in the assay with IGROV-1, with KM12, with LOX IMVI and with MCF7 was > 100 µM (inactive) throughout. Besides, the GI50 with MOLT-4 was > 100 µM (inactive); in the assay with Malme-3M, > 100 µM (inactive); in the assay on OVCAR-3 it was > 100 µM (inactive); with OVCAR-5, > 100 µM (inactive); in the assay with RPMI-8226, 15.2 µM (inactive); with SK-MEL-2 it was > 100 µM (inactive). For the same compound, in the assay on UACC-257, the GI50 was > 100 µM (inactive).

As for `COc1ccc(C(=O)N2CCc3c([nH]c4ccccc34)C2C(=O)O)o1` (stereo not given), the GI50 with 786-0, with A498, in the assay on A549, in the assay with DU-145, in the assay on HCC 2998 and in the assay with HOP-92 was > 10 µM (inactive) throughout. The GI50 in the assay on HT-29, in the assay on Hs-578T, in the assay with IGROV-1, with KM12, with MCF7 and in the assay on MOLT-4 was > 10 µM (inactive) throughout. For the same compound, the GI50 in the assay with Malme-3M, in the assay on OVCAR-3, in the assay with RPMI-8226 and in the assay on UACC-257 was > 10 µM (inactive) in each case.

In the case of `COc1cc2cc(C(=O)N3CC(CCl)c4c3cc(NC(=O)OCc3ccc([N+](=O)[O-])cc3)c3ccccc43)[nH]c2c(OC)c1OC` (stereo not given), the GI50 with 786-0 is 0.785 µM (active); in the assay with A498 it was < 0.01 µM (active); in the assay on A549 it was 8.65 µM (inactive); with DU-145 it was 0.108 µM (active); in the assay with HCC 2998, 0.0226 µM (active); in the assay on HOP-92 it was > 45.7 µM (inactive). In addition, the GI50 in the assay with HT-29 is > 54.2 µM (inactive); in the assay with Hs-578T it was > 53.1 µM (inactive); with IGROV-1, > 43.9 µM (inactive); in the assay on KM12 it was > 42.5 µM (inactive); in the assay with LOX IMVI it was 38.7 µM (inactive); in the assay with MCF7 it was 36.1 µM (inactive). Moreover, the GI50 was 9.73 µM (inactive) in the assay with MOLT-4; > 100 µM (inactive) in the assay with Malme-3M; > 100 µM (inactive) in the assay on OVCAR-3; 29.4 µM (inactive) with OVCAR-5; 13.3 µM (inactive) with RPMI-8226; > 69.2 µM (inactive) in the assay with SK-MEL-2. The GI50 in the assay on UACC-257 is > 71.3 µM (inactive).

`Nc1ncnc2c1nnn2C1C=CC(CP(=O)(O)O)C1` (stereo not given): the GI50 in the assay on 786-0, in the assay with A549, in the assay with DU-145, with HCC 2998, with HT-29 and with Hs-578T was > 100 µM (inactive) throughout. Further, the GI50 in the assay on IGROV-1, with KM12, in the assay on LOX IMVI, in the assay with MCF7, with MOLT-4 and in the assay on Malme-3M was > 100 µM (inactive) each time. For the same compound, the GI50 with OVCAR-3, in the assay on OVCAR-5, with RPMI-8226, in the assay on SK-MEL-2 and in the assay on UACC-257 was > 100 µM (inactive) throughout.

As for `CSc1nn(C)cc2ncnc1-2`, the GI50 in the assay on 786-0, in the assay on A498, in the assay with A549, in the assay with DU-145, with HT-29 and in the assay with Hs-578T was > 100 µM (inactive) throughout. Further, the GI50 in the assay on IGROV-1, in the assay on KM12, in the assay with MCF7, in the assay with MOLT-4, in the assay with OVCAR-3 and with OVCAR-5 was > 100 µM (inactive) throughout. The GI50 with RPMI-8226, in the assay with SK-MEL-2 and with UACC-257 was > 100 µM (inactive) each time.

For the compound `CCOC(=O)[C@@]12CCC(C1=O)[C@](C)(O)C[C@@H]2c1ccccc1`, the GI50 was 23.1 µM (inactive) in the assay on 786-0; 50.4 µM (inactive) in the assay on A549; 85.9 µM (inactive) in the assay with DU-145; 55.1 µM (inactive) with HOP-92; 29.2 µM (inactive) in the assay with HT-29; 22.6 µM (inactive) in the assay on Hs-578T. Besides, the GI50 is 35.4 µM (inactive) with IGROV-1; 31.8 µM (inactive) with KM12; 48.6 µM (inactive) with LOX IMVI; 30.5 µM (inactive) with MOLT-4; 37.6 µM (inactive) in the assay on Malme-3M; 19 µM (inactive) in the assay on NCI-H522. Moreover, the GI50 with OVCAR-3 was 28.2 µM (inactive); with OVCAR-5 it was 80.9 µM (inactive); in the assay on SK-MEL-2, 38.1 µM (inactive); with UACC-257, 75 µM (inactive).
